# Measured values reported in publication PMC5218480 (PLoS ONE, 2017).
# System: MV-4-11 cells
# Test: Gene expression microarray analysis (Affymetrix PrimeView) and GSEA
# Assay type: cell-based, human
# Parameters: RFU PODN (11730768_x_at) / Fold change /veh PODN (11730768_x_at) / RFU LINC00158 (11744669_a_at) / Fold change /veh LINC00158 (11744669_a_at) / RFU DUSP10 (11751237_a_at) / Fold change /veh DUSP10 (11751237_a_at) / RFU ID3 (11757404_x_at) / Fold change /veh ID3 (11757404_x_at) / RFU PLEKHG5 (11737974_s_at) / Fold change /veh PLEKHG5 (11737974_s_at) / RFU LRRC4B (11730491_at) / Fold change /veh LRRC4B (11730491_at) / RFU GIMAP4 (11747438_a_at) / Fold change /veh GIMAP4 (11747438_a_at) / RFU KRT8 (11758183_x_at) / Fold change /veh KRT8 (11758183_x_at) / RFU CNN1 (11734310_a_at) / Fold change /veh CNN1 (11734310_a_at) / RFU VPS37D (11726825_at) / Fold change /veh VPS37D (11726825_at) / RFU C10orf10 (11716522_x_at) / Fold change /veh C10orf10 (11716522_x_at) / RFU KIR2DL2 /// KIR2DL4 /// KIR2DL5A /// KIR2DL5B /// KIR2DS1 /// KIR2DS2 /// KIR2DS3 /// KIR2DS4 /// KIR3DL3 /// KIR3DL3 /// KIR3DS1 (11738374_at) / Fold change /veh KIR2DL2 /// KIR2DL4 /// KIR2DL5A /// KIR2DL5B /// KIR2DS1 /// KIR2DS2 /// KIR2DS3 /// KIR2DS4 /// KIR3DL3 /// KIR3DL3 /// KIR3DS1 (11738374_at) / RFU C1QL1 (11718748_at) / Fold change /veh C1QL1 (11718748_at) / RFU TMPRSS4 (11747572_a_at) / Fold change /veh TMPRSS4 (11747572_a_at) / RFU HAMP (11756126_x_at) / Fold change /veh HAMP (11756126_x_at) / RFU RNFT2 (11725882_a_at) / Fold change /veh RNFT2 (11725882_a_at) / RFU NR4A2 (11747474_a_at) / Fold change /veh NR4A2 (11747474_a_at) / RFU ABCC12 (11746883_a_at) / Fold change /veh ABCC12 (11746883_a_at) / RFU TMEM136 (11760407_x_at) / Fold change /veh TMEM136 (11760407_x_at) / RFU CLDN22 /// WWC2 (11732394_at) / Fold change /veh CLDN22 /// WWC2 (11732394_at) / RFU HLA-DPB1 (11760878_x_at) / Fold change /veh HLA-DPB1 (11760878_x_at) / RFU SPINT1 (11716480_a_at) / Fold change /veh SPINT1 (11716480_a_at) / RFU GAP43 (11754022_s_at) / Fold change /veh GAP43 (11754022_s_at) / RFU A4GNT (11735810_at) / Fold change /veh A4GNT (11735810_at) / RFU PRB3 (11715151_x_at) / Fold change /veh PRB3 (11715151_x_at) / RFU TUBB4B (11761932_at) / Fold change /veh TUBB4B (11761932_at) / RFU CAPN14 (11732068_a_at) / Fold change /veh CAPN14 (11732068_a_at) / RFU TMCC2 (11721928_a_at) / Fold change /veh TMCC2 (11721928_a_at) / RFU IRGQ (11745062_a_at) / Fold change /veh IRGQ (11745062_a_at) / RFU FAM174B (11720279_a_at) / Fold change /veh FAM174B (11720279_a_at) / RFU TMPRSS4 (11748680_a_at) / Fold change /veh TMPRSS4 (11748680_a_at) / RFU FAM212B (11763350_a_at) / Fold change /veh FAM212B (11763350_a_at) / RFU PLEKHG5 (11743358_a_at) / Fold change /veh PLEKHG5 (11743358_a_at) / RFU ZSCAN30 (11745921_a_at) / Fold change /veh ZSCAN30 (11745921_a_at) / RFU CMKLR1 (11741424_a_at) / Fold change /veh CMKLR1 (11741424_a_at) / RFU LOC101060620 /// MAPK8IP1 (11723275_at) / Fold change /veh LOC101060620 /// MAPK8IP1 (11723275_at) / RFU SPTSSB (11747773_x_at) / Fold change /veh SPTSSB (11747773_x_at) / RFU PRSS12 (11739890_at) / Fold change /veh PRSS12 (11739890_at) / RFU BIN1 (11741810_x_at) / Fold change /veh BIN1 (11741810_x_at) / RFU WNT11 (11732464_a_at) / Fold change /veh WNT11 (11732464_a_at) / RFU C10orf10 (11716521_a_at) / Fold change /veh C10orf10 (11716521_a_at) / RFU C5orf56 (11738089_at) / Fold change /veh C5orf56 (11738089_at) / RFU CYB561 (11721691_x_at) / Fold change /veh CYB561 (11721691_x_at) / RFU ANKRD19P (11752326_a_at) / Fold change /veh ANKRD19P (11752326_a_at) / RFU OR2T12 /// OR2T33 /// OR2T8 (11738714_s_at) / Fold change /veh OR2T12 /// OR2T33 /// OR2T8 (11738714_s_at) / RFU VCAN (11748164_a_at) / Fold change /veh VCAN (11748164_a_at) / RFU JSRP1 (11732532_at) / Fold change /veh JSRP1 (11732532_at) / RFU KRTAP10-11 (11738290_x_at) / Fold change /veh KRTAP10-11 (11738290_x_at) / RFU MYO3A (11730013_a_at) / Fold change /veh MYO3A (11730013_a_at) / RFU EBF3 (11725865_a_at) / Fold change /veh EBF3 (11725865_a_at) / RFU CAMK2N1 (11719241_x_at) / Fold change /veh CAMK2N1 (11719241_x_at) / RFU C5orf56 (11738088_a_at) / Fold change /veh C5orf56 (11738088_a_at) / RFU OLFML3 (11715873_a_at) / Fold change /veh OLFML3 (11715873_a_at) / RFU LOC100653217 /// NTM (11731650_a_at) / Fold change /veh LOC100653217 /// NTM (11731650_a_at) / RFU MAPK11 (11762145_a_at) / Fold change /veh MAPK11 (11762145_a_at) / RFU FIZ1 (11724087_x_at) / Fold change /veh FIZ1 (11724087_x_at) / RFU OASL (11726364_x_at) / Fold change /veh OASL (11726364_x_at) / RFU SOX15 (11748057_x_at) / Fold change /veh SOX15 (11748057_x_at) / RFU CD79A (11719716_a_at) / Fold change /veh CD79A (11719716_a_at) / RFU HIST1H1D (11736915_at) / Fold change /veh HIST1H1D (11736915_at) / RFU CASKIN2 (11723855_a_at) / Fold change /veh CASKIN2 (11723855_a_at) / RFU LOC730098 (11760151_x_at) / Fold change /veh LOC730098 (11760151_x_at) / RFU OR4N2 (11742367_at) / Fold change /veh OR4N2 (11742367_at) / RFU PRRT2 (11749266_a_at) / Fold change /veh PRRT2 (11749266_a_at) / RFU SNX32 (11753110_a_at) / Fold change /veh SNX32 (11753110_a_at) / RFU CDHR5 (11726645_a_at) / Fold change /veh CDHR5 (11726645_a_at) / RFU RCAN1 (11760418_a_at) / Fold change /veh RCAN1 (11760418_a_at) / RFU FAM167A (11723789_a_at) / Fold change /veh FAM167A (11723789_a_at) / RFU FAM26E (11764081_at) / Fold change /veh FAM26E (11764081_at) / RFU ISYNA1 (11749810_s_at) / Fold change /veh ISYNA1 (11749810_s_at) / RFU ACY1 (11761880_at) / Fold change /veh ACY1 (11761880_at) / RFU 11764098_at / Fold change /veh 11764098_at / RFU SAMD14 (11745864_x_at) / Fold change /veh SAMD14 (11745864_x_at) / RFU NPB (11741838_a_at) / Fold change /veh NPB (11741838_a_at) / RFU TMPRSS6 (11731388_a_at) / Fold change /veh TMPRSS6 (11731388_a_at) / RFU KRTAP10-2 (11738614_at) / Fold change /veh KRTAP10-2 (11738614_at) / RFU ARHGAP8 /// PRR5-ARHGAP8 (11727945_x_at) / Fold change /veh ARHGAP8 /// PRR5-ARHGAP8 (11727945_x_at) / RFU KRTAP5-7 /// NADSYN1 (11734609_at) / Fold change /veh KRTAP5-7 /// NADSYN1 (11734609_at) / RFU RASL12 (11751679_a_at) / Fold change /veh RASL12 (11751679_a_at) / RFU CDKN2B (11736163_a_at) / Fold change /veh CDKN2B (11736163_a_at) / RFU PRF1 (11729649_at) / Fold change /veh PRF1 (11729649_at) / RFU, ZNF638 /// ZNF638-IT1 / Fold change vs veh, ZNF638 /// ZNF638-IT1 / RFU, PANK3 / Fold change vs veh, PANK3 / RFU, SH3YL1 / Fold change vs veh, SH3YL1 / RFU, ZEB2 / Fold change vs veh, ZEB2 / RFU, NRIP1 / Fold change vs veh, NRIP1 / RFU, PTTG1IP / Fold change vs veh, PTTG1IP / RFU, CAPN2 / Fold change vs veh, CAPN2 / RFU, MED14 / Fold change vs veh, MED14 / RFU, SNORA58 / Fold change vs veh, SNORA58 / RFU, C1orf63 / Fold change vs veh, C1orf63 / RFU, LRRFIP1 / Fold change vs veh, LRRFIP1 / RFU, NDUFAF7 / Fold change vs veh, NDUFAF7 / RFU, SLC12A2 / Fold change vs veh, SLC12A2 / RFU, IBTK / Fold change vs veh, IBTK / RFU, ESF1 / Fold change vs veh, ESF1 / Fold change vs veh, TMEM50B / RFU, TAOK1 / Fold change vs veh, TAOK1 / RFU, ACBD3 / Fold change vs veh, ACBD3 / RFU, TMA16 / Fold change vs veh, TMA16 / RFU, RWDD3 / Fold change vs veh, RWDD3 / RFU, BCAT1 / Fold change vs veh, BCAT1 / RFU, EDEM3 / Fold change vs veh, EDEM3 / RFU, TMEM33 / Fold change vs veh, TMEM33 / RFU, WDR75 / Fold change vs veh, WDR75 / RFU, AHCTF1 / Fold change vs veh, AHCTF1 / RFU, TFRC / Fold change vs veh, TFRC / RFU, ZDHHC17 / Fold change vs veh, ZDHHC17 / RFU, NOM1 / Fold change vs veh, NOM1 / RFU, ARL8B / Fold change vs veh, ARL8B / RFU, ZBTB11 / Fold change vs veh, ZBTB11 / RFU, TAMM41 / Fold change vs veh, TAMM41 / RFU, KIAA1704 /// LOC100996395 / Fold change vs veh, KIAA1704 /// LOC100996395 / RFU, ING1 / Fold change vs veh, ING1 / RFU, TRMT61B / Fold change vs veh, TRMT61B / RFU, FUBP3 / Fold change vs veh, FUBP3 / RFU, TP53 / Fold change vs veh, TP53 / RFU, TNKS2 / Fold change vs veh, TNKS2 / RFU, ZFP14 / Fold change vs veh, ZFP14 / RFU, ACTR2 / Fold change vs veh, ACTR2 / RFU, PPP3R1 / Fold change vs veh, PPP3R1 / RFU, PIK3R1 / Fold change vs veh, PIK3R1 / RFU, HNRNPA1 / Fold change vs veh, HNRNPA1 / RFU, RNF170 / Fold change vs veh, RNF170 / RFU, ZNF28 / Fold change vs veh, ZNF28 / RFU, RNGTT / Fold change vs veh, RNGTT / RFU, OGT / Fold change vs veh, OGT / RFU, BRD1 / Fold change vs veh, BRD1 / RFU, MARS / Fold change vs veh, MARS / RFU, ZNF655 / Fold change vs veh, ZNF655 / RFU, FAHD1 / Fold change vs veh, FAHD1 / RFU, BDP1 / Fold change vs veh, BDP1 / RFU, LRRCC1 / Fold change vs veh, LRRCC1 / RFU, ARID1A / Fold change vs veh, ARID1A / RFU, ZNF146 / Fold change vs veh, ZNF146 / RFU, ZNF330 / Fold change vs veh, ZNF330 / RFU, GPN3 / Fold change vs veh, GPN3 / RFU, C9orf123 / Fold change vs veh, C9orf123 / RFU, N4BP2L2 / Fold change vs veh, N4BP2L2 / RFU, ARFIP1 / Fold change vs veh, ARFIP1 / RFU, FAM179B / Fold change vs veh, FAM179B / RFU, BCL10 / Fold change vs veh, BCL10 / RFU, UHRF1BP1L / Fold change vs veh, UHRF1BP1L / RFU, BET1 / Fold change vs veh, BET1 / RFU, CNOT2 / Fold change vs veh, CNOT2 / RFU, ZNF268 / Fold change vs veh, ZNF268 / Fold change vs veh, ZNF507 / RFU, DGCR2 / Fold change vs veh, DGCR2 / RFU, WDSUB1 / Fold change vs veh, WDSUB1 / Fold change vs veh, HSP90B1 /// MIR3652 / RFU, ADSS / Fold change vs veh, ADSS / RFU, GK / Fold change vs veh, GK / RFU, ZNF148 / Fold change vs veh, ZNF148 / RFU, TAF9 / Fold change vs veh, TAF9 / RFU, SLC1A5 / Fold change vs veh, SLC1A5 / RFU, SLMO2 / Fold change vs veh, SLMO2 / RFU, ABCC4 / Fold change vs veh, ABCC4 / RFU, LOC101060439 /// RAP1B / Fold change vs veh, LOC101060439 /// RAP1B / RFU, RFX7 / Fold change vs veh, RFX7 / RFU, GTPBP10 / Fold change vs veh, GTPBP10 / RFU, CNEP1R1 / Fold change vs veh, CNEP1R1 / RFU, BIVM-ERCC5 /// ERCC5 / Fold change vs veh, BIVM-ERCC5 /// ERCC5 / RFU, ILF3 / Fold change vs veh, ILF3 / RFU 11762660_at / Fold change /veh 11762660_at / RFU VCAN (11757783_s_at) / Fold change /veh VCAN (11757783_s_at) / RFU DDX43 (11728927_at) / Fold change /veh DDX43 (11728927_at) / RFU KRT8 (11758188_x_at) / Fold change /veh KRT8 (11758188_x_at) / RFU NKD1 (11759106_at) / Fold change /veh NKD1 (11759106_at) / RFU SRD5A1 (11742802_a_at) / Fold change /veh SRD5A1 (11742802_a_at) / RFU TPSAB1 /// TPSB2 (11721975_s_at) / Fold change /veh TPSAB1 /// TPSB2 (11721975_s_at) / RFU GSTM3 (11746129_a_at) / Fold change /veh GSTM3 (11746129_a_at) / RFU IL23R (11737362_x_at) / Fold change /veh IL23R (11737362_x_at) / RFU TMEM51 (11727254_a_at) / Fold change /veh TMEM51 (11727254_a_at) / RFU PIWIL2 (11732686_x_at) / Fold change /veh PIWIL2 (11732686_x_at) / RFU ORM1 (11744905_x_at) / Fold change /veh ORM1 (11744905_x_at) / RFU CCDC152 (11743942_at) / Fold change /veh CCDC152 (11743942_at) / RFU ECM1 (11717891_a_at) / Fold change /veh ECM1 (11717891_a_at) / RFU IL23R (11748794_a_at) / Fold change /veh IL23R (11748794_a_at) / RFU TNFAIP8L3 (11732012_x_at) / Fold change /veh TNFAIP8L3 (11732012_x_at) / RFU MBOAT4 (11741988_at) / Fold change /veh MBOAT4 (11741988_at) / RFU 11764193_at / Fold change /veh 11764193_at / RFU TMEM53 (11763286_at) / Fold change /veh TMEM53 (11763286_at) / RFU MAGEB2 (11727129_at) / Fold change /veh MAGEB2 (11727129_at) / RFU TMEM200A (11744735_a_at) / Fold change /veh TMEM200A (11744735_a_at) / RFU CCDC152 (11751479_a_at) / Fold change /veh CCDC152 (11751479_a_at) / RFU FAM211A (11726209_a_at) / Fold change /veh FAM211A (11726209_a_at) / RFU RGS16 (11746705_a_at) / Fold change /veh RGS16 (11746705_a_at) / RFU VCAN (11755009_s_at) / Fold change /veh VCAN (11755009_s_at) / RFU RHOB (11743442_s_at) / Fold change /veh RHOB (11743442_s_at) / RFU RGS16 (11720943_a_at) / Fold change /veh RGS16 (11720943_a_at) / RFU RGS16 (11720944_at) / Fold change /veh RGS16 (11720944_at) / RFU, VPS4B / Fold change vs veh, VPS4B / RFU, CREB1 / Fold change vs veh, CREB1 / RFU, DNAJC13 / Fold change vs veh, DNAJC13 / RFU, GNAQ / Fold change vs veh, GNAQ / RFU, CDK5R1 / Fold change vs veh, CDK5R1 / RFU, ZRANB3 / Fold change vs veh, ZRANB3 / RFU, CUL4A / Fold change vs veh, CUL4A / RFU, CCNY / Fold change vs veh, CCNY / RFU, UFL1 / Fold change vs veh, UFL1 / RFU, COG3 / Fold change vs veh, COG3 / RFU, DIAPH2 / Fold change vs veh, DIAPH2 / RFU, SKA2 / Fold change vs veh, SKA2 / RFU, AFF3 / Fold change vs veh, AFF3 / RFU, LMF1 / Fold change vs veh, LMF1 / RFU, IPO11 / Fold change vs veh, IPO11 / RFU, DFFB / Fold change vs veh, DFFB / RFU, FOXP1 / Fold change vs veh, FOXP1 / RFU, CARD8 / Fold change vs veh, CARD8 / RFU, STRN3 / Fold change vs veh, STRN3 / RFU, ADK / Fold change vs veh, ADK / RFU, RASSF2 / Fold change vs veh, RASSF2 / RFU, WIPF1 / Fold change vs veh, WIPF1 / RFU, LARP1B / Fold change vs veh, LARP1B / RFU, RASA1 / Fold change vs veh, RASA1 / RFU, RB1 / Fold change vs veh, RB1 / RFU, PPFIA1 / Fold change vs veh, PPFIA1 / RFU, MAT2A / Fold change vs veh, MAT2A / RFU, CCT5 / Fold change vs veh, CCT5 / RFU, WDR92 / Fold change vs veh, WDR92 / RFU, CUX1 / Fold change vs veh, CUX1 / RFU, TTC7A / Fold change vs veh, TTC7A / RFU, TMEM135 / Fold change vs veh, TMEM135 / RFU, DEPTOR / Fold change vs veh, DEPTOR / RFU, CPM / Fold change vs veh, CPM / RFU, DNAJB6 / Fold change vs veh, DNAJB6 / RFU, CACNA2D3 / Fold change vs veh, CACNA2D3 / RFU, DTX4 / Fold change vs veh, DTX4 / RFU, TFCP2 / Fold change vs veh, TFCP2 / RFU, GMCL1 /// GMCL1P1 / Fold change vs veh, GMCL1 /// GMCL1P1 / RFU, AEBP2 / Fold change vs veh, AEBP2 / RFU, SNHG1 /// SNORD22 /// SNORD25 /// SNORD26 /// SNORD27 /// SNORD28 /// SNORD29 /// SNORD31 / Fold change vs veh, SNHG1 /// SNORD22 /// SNORD25 /// SNORD26 /// SNORD27 /// SNORD28 /// SNORD29 /// SNORD31 / Fold change (Aza/veh), C12orf56 (ProbeSet 11735607_a_at) / Fold change (ACY-1035/veh), C12orf56 (ProbeSet 11735607_a_at) / Fold change (Aza/veh), FGFR1OP (ProbeSet 11751329_s_at) / Fold change (ACY-1035/veh), FGFR1OP (ProbeSet 11751329_s_at) / Fold change (Aza/veh), VPS36 (ProbeSet 11739960_a_at) / Fold change (ACY-1035/veh), VPS36 (ProbeSet 11739960_a_at) / RFU SYPL1 (11715823_x_at) / Fold change /veh SYPL1 (11715823_x_at) / RFU IGFBP7 (11715501_s_at) / Fold change /veh IGFBP7 (11715501_s_at) / RFU REEP3 (11722064_at) / Fold change /veh REEP3 (11722064_at) / RFU IGLL1 (11728026_x_at) / Fold change /veh IGLL1 (11728026_x_at): dose or concentration left out as unconfirmed
# Conditions: ProbeSet 11743882_a_at; LIST D
smiles,measurement,value
Nc1ccc(-c2cccs2)cc1NC(=O)c1ccc2c(c1)cc(C1CC1)n2CCN1CCOCC1 [ACY-1035],"RFU, STRN3",114.91 RFU
